Measurements as given in US20230405130A1, “COMPOSITIONS AND METHODS FOR MODIFYING BACTERIAL GENE EXPRESSION” (priority 2020, published 2023).

Key:
[1] = test system: dnaE; assay: dnaE expression after anti-dnaE oligonucleotide treatment (immunoblotting); format: cell-based, C. difficile; conditions: FIG. 2
Method: Studies were performed to identify C. difficile gene targets with the least pathway redundancy, while ensuring ASO specificity (oligonucleotides ≥25 bp in length). […] Five candidate C. difficile gene targets were identified, and dnaE (which encodes the alpha subunit of DNA polymerase III, and is invariant in C. difficile strains) harbored the most favorable translation inhibition potential (confirmed via immunoblotting; FIG. 2). Thus, it was used in further experiments. Specifically, the ASO formulation is a 2′-O-methyl phosphorothioate (PTO) gapmer, which has a good safety record (Shen et al., Antisense Nucleic Acid Drug Dev. 2001 August; 11(4):257-64; Chen et al., Transplantation. 2005 Feb. 27; 79(4):401-8; Nomura et al., Int J Pharm. 2018 Aug. 25; 547(1-2):556-562.).

[2] = Water solubility; format: physicochemical; conditions: room temperature
[3] = test system: B. fragilis; assay: In vitro growth of commensal bacteria: B. fragilis; format: cell-based; conditions: only at >17× the dosing range to treat C. difficile
Method: (§1) Nanocomplex CAB-964 was complexed to the anti-dnaE ASO (SEQ ID NO:1) as previously described (Hegarty et al., Int J Nanomedicine. 2016 Aug. 1; 11:3607-19; Sharma et al., J Antibiot (Tokyo). 2018 August; 71(8):713-721; herein incorporated by reference in its entirety) and the resulting nanocomplex is called SRPNT. Multiple in vitro tests were performed with SRPNT as well as its parent empty CAB, with CAB CYDE-21 and its derived nanocomplex as comparators. For the pathogen (Hegarty 2016, supra; Sharma 2018, supra) a whole genome-sequenced Ribotype 027 C. difficile strain associated with severe, complicated CDI in human subjects was used.

[4] = test system: Ribotype 027 C. difficile strain; assay: In vitro anti-C. difficile activity / MIC; format: cell-based; conditions: FIG. 3 legend
Method: as §1

[5] = test system: E. faecalis; assay: In vitro growth of commensal bacteria: E. faecalis; format: cell-based; conditions: only at >17× the dosing range to treat C. difficile
Method: as §1

[6] = test system: cultured human intestinal epithelial cells; assay: Toxicity to cultured human intestinal epithelial cells; format: cell-based; conditions: at the doses used for C. difficile inhibition
[7] = test system: E. coli; assay: In vitro growth of commensal bacteria: E. coli; format: cell-based; conditions: only at >17× the dosing range to treat C. difficile
Method: as §1

5′-G*T*T*C*A*T*TAAA TCACC TCC T*G*C*T*T*T*A3′ (GTTCATTAAATCACCTCCTGCTTT; listed as DNA, chemistry not fully specified) [anti-dnaE oligonucleotide, 2′-O-methyl phosphorothioate (PTO) gapmer ASO targeting dnaE]
dnaE expression [1]: decreases dnaE expression

c1cc2c([n+](CCCCCCCCCC[n+]3cccc4c3CCCC4)c1)CCCC2 [CAB-964]
solubility [2]: 26 mg/mL
growth reduction of B. fragilis [3]: 7%
anti-C. difficile activity [4]: no anti-C. difficile activity
growth reduction of E. faecalis [5]: 7%
toxicity to cultured human intestinal epithelial cells [6]: non-toxic
growth reduction of E. coli [7]: 7%
